Experimental data as given in the Kinase Knowledgebase extract (Sharma et al. 2016).

molecular target: MAPK14 (UniProt Q16539); assay: p-38 Kinase Inhibition Assay; details: not given
Sequence (Q16539 whole entry, looked up): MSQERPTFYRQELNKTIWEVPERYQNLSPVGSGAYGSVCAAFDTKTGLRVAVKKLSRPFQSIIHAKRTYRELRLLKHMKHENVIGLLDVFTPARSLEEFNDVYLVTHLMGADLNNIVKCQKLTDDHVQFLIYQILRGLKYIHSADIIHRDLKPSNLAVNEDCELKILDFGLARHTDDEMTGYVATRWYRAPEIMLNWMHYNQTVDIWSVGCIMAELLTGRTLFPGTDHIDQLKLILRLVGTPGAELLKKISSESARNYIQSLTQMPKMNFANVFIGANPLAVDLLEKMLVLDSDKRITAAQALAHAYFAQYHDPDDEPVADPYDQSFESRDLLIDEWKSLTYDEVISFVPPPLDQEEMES

| IC50 | SMILES |
| --- | --- |
| 1450 nM | NC(=NO)c1cccc(C(=O)c2cnn(-c3ccc(F)cc3)c2N)c1 |

system: MAPK14 (sprague-dawley rat); assay: Inhibition of LPS Induced TNF-alpha Production in Rats; details: dose or concentration not given here

| SMILES | inhibition |
| --- | --- |
| Nc1c(C(=O)c2cccc(C#CCN3CCOCC3)c2)cnn1-c1ccc(F)cc1 | 96% |
| CNC(=O)COc1cccc(C(=O)c2cnn(-c3ccc(F)cc3)c2N)c1 | 75% |
| CN1CCN(CC#Cc2cccc(C(=O)c3cnn(-c4ccc(F)cc4)c3N)c2)CC1 | 86% |
| CNCC#Cc1cccc(C(=O)c2cnn(-c3ccc(F)cc3)c2N)c1 | 86% |
| NC(=NO)c1cccc(C(=O)c2cnn(-c3ccc(F)cc3)c2N)c1 | 76% |

molecular target: MAPK14 (human) (UniProt Q16539); assay: Inhibition of LPS-Induced TNF-a Production in THP1 Cells; details: not given
Sequence (Q16539 whole entry, looked up): as above

| IC50 | SMILES |
| --- | --- |
| 1040 nM | Nc1c(C(=O)c2cccc(CCCN3CCOCC3)c2)cnn1-c1ccc(F)cc1 |
| 6300 nM | Nc1c(C(=O)c2ccc(/C=C/CN3CCOCC3)cc2)cnn1-c1ccc(F)cc1 |
| 170 nM | Nc1cccc(C(=O)c2cnn(-c3ccc(F)cc3)c2N)c1 |
| 510 nM | Nc1c(C(=O)c2cccc(CCS(N)(=O)=O)c2)cnn1-c1ccc(F)cc1 |
| 830 nM | N#CCCCOc1cccc(C(=O)c2cnn(-c3ccc(F)cc3)c2N)c1 |
| 1620 nM | Nc1c(C(=O)c2cccc(/C=C/S(N)(=O)=O)c2)cnn1-c1ccc(F)cc1 |
| 140 nM | Nc1c(C(=O)c2cccc(N3CCC(Cc4ccccc4)CC3)c2)cnn1-c1ccc(F)cc1 |
| 610 nM | Nc1c(C(=O)c2cccc(OCCCN3CCCCC3)c2)cnn1-c1ccc(F)cc1 |
| 1770 nM | Nc1c(C(=O)c2ccc(CCCO)cc2)cnn1-c1ccccc1 |
| 1260 nM | Nc1c(C(=O)c2cccc(/C=C/CN3CCOCC3)c2)cnn1-c1ccc(F)cc1 |
| 770 nM | Nc1c(C(=O)c2cccc(OCCN3CCOCC3)c2)cnn1-c1ccc(F)cc1 |
| 170 nM | NC(=NO)c1cccc(C(=O)c2cnn(-c3ccc(F)cc3)c2N)c1 |

| SMILES | IC50 |
| --- | --- |
| CN1CCN(C(=O)COc2cccc(C(=O)c3cnn(-c4ccc(F)cc4)c3N)c2)CC1 | 690 nM |
